Source: patent publication US20260356834A1, “ANTICONVULSIVE COMPOUNDS AND USES THEREOF” (Jazz Pharmaceuticals Research UK Limite, priority 2023, published 2026)
Where “and” joins values, the source holds several entries; their conditions need not be identical. Equal values may be shown once. Marks after values point to notes of the source that are not given here.

Tests used:
[1] = test system: RjOrl: Swiss mice; assay: mouse 6 Hz (44 mA) model of partial seizures; type: in vivo; details: for Mean Forelimb Clonus +/− SEM: score 0-2; for Change from vehicle 2 (forelimb clonus): vs vehicle 2 (1:2:17)
[2] = test system: DBA/2 mice; assay: mouse audiogenic seizure test; type: in vivo; details: for Clonic convulsion - presence, Total / Tonic convulsion - presence, Total / Wild running - presence, Total: number of mice, n = 10
Description: The Audiogenic Seizure Test, which detects anticonvulsant activity, follows that described by Durmüller et al., 1993. Mice of the DBA/2 strain undergo an age-dependent sequence of convulsions (wild-running, clonic convulsion, tonic convulsion and respiratory arrest) within 60 seconds of exposure to a loud sound of 110-120 dB. The type of convulsions are consistent with aspects of generalised seizure in humans.
Male DBA/2 mice (3-4 weeks old) were supplied by Janvier Labs (53940 Le Genest-Saint-Isle, France); weight range 6-13 g at the beginning of the experiment. Animals were acclimatized to the Test Facility for 1 day after delivery and randomly housed in groups of 5 in macrolon cages on wood litter with free access to food and water.
The animal house was maintained under artificial lighting (12 hours) between 7:00 and 19:00 in a controlled ambient temperature of 22±2 °C and relative humidity between 30-70%.
Mice were individually transferred (at 3-5 minutes intervals) from the preparation room into an adjacent experimental room and body temperature was measured using a rectal thermometer (Digital Laboratory Thermometer: Model BAT-12). Immediately after, they were placed in a Plexiglas jar (Diameter=40 cm; Height=35 cm) mounted with an electric bell (110-120 dB, supplier Leroy Merlin, France). Upon activating the bell, the occurrences and latencies to wild running fits, clonic and tonic seizures were measured. Deaths were also recorded. The bell was activated until a tonic seizure occurred, or for a maximum of 60 seconds.
The experiment included groups of 10 mice per group. Experimenters were only partially blinded to treatment group as pre-treatment times were different.
The test substance was evaluated at various doses, administered i.p. (10 ml/kg) 15 or 30 minutes before the test, and compared with a vehicle control group.
Due to the number of animals tested, the experiment was divided in 2 sub-experiments on 2 separate days (7 days apart) with 5 mice per group in each sub-experiment.
Data were tested for normality using d'Agostino-Pearson Test and found to not follow a normal distribution. Statistical outliers were not identified or removed because no behavioural outliers were identified. Quantitative data (latencies) with the test substance were analyzed by comparing treated groups with vehicle control using Kruskal-Wallis test followed by Dunn's multiple comparisons test. Quantitative data with the reference substance were analyzed using Mann-Whitney U test. Quantal data (frequencies) were analyzed by comparing treated groups with vehicle control using Fisher's Exact Probability test.

[3] = test system: C57BL/6J mice; assay: mouse maximal electroshock seizure threshold model using minimal sample sizes (mini-MEST)
Description: An increase in seizure threshold is indicative of an anticonvulsive effect.
The ability of a test compound to alter the stimulus intensity, expressed as current (mA), required to induce the presence of tonic hind limb extensor convulsions, is assessed in the MEST.
In the mini-MEST test, a lower n number is used.
Male C57BL/6J mice were housed in groups of 6. Mice were kept under standard conditions (12 hour light cycle; light intensity of 25-75 lux) and fed a diet of certified rodent CR 14% protein rodent diet (LabDiet® 4CR4). Mice were 8-9 weeks old at the start of the study.
Naïve mice were acclimatised to the procedure room in their home cages for up to 7 days, with food and water available ad libitum.
All animals were weighed at the beginning of the study and randomly assigned to treatment groups based on a mean distribution of body weight across groups.
The first animal within a treatment group was given a shock at the expected or estimated CC50 current. For subsequent animals, the current was lowered or raised depending on the convulsions outcome from the preceding animal in log scale intervals.
Data generated from each treatment group were used to calculate the CC50±SEM values for the treatment group.
Vehicle: (5% ethanol, 10% Solutol® (Kolliphor® HS 15), 85% saline). 1 mL of ethanol, 2 mL of Solutol™ were warmed to 60 °C, in 17 mL of 0.9% saline.
Test compounds: 5-50 mg/kg in a 1:2:17 ethanol:Solutol®:saline formulation (as used for vehicle).

[4] = 10 mg/kg i.p., 15 min post dose
[5] = 10 mg/kg i.p., 30 min post dose
[6] = 10 mg/kg i.p., 60 min post dose
[7] = 30 mg/kg i.p., 30 min post dose

## CCCc1cc(O)c(-c2c(C)ccn3ccnc23)c(O)c1 [Compound 2, 2-(7-Methylimidazo[1,2-a]pyridin-8-yl)-5-propylbenzene-1,3-diol]
[1]; 10 mg/kg i.p., 30 min
  Mean Forelimb Clonus +/− SEM: 0.7 ± 0.1
  Change from vehicle 2 (forelimb clonus): −22%
[1]; 30 mg/kg i.p., 15 min
  Mean Forelimb Clonus +/− SEM: 0.7 ± 0.1
  Change from vehicle 2 (forelimb clonus): −22%
[1]; 60 mg/kg i.p., 30 min
  Mean Forelimb Clonus +/− SEM: 0.7 ± 0.1
  Change from vehicle 2 (forelimb clonus): −22%
[1]; 100 mg/kg i.p.
  sedation: slight sedation observed
[1]; 100 mg/kg i.p., 30 min
  Mean Forelimb Clonus +/− SEM: 0.3 ± 0.1
  Change from vehicle 2 (forelimb clonus): −67%
[1]; 10, 30 or 60 mg/kg i.p.
  adverse signs: no adverse signs were noted
[2]; 3 mg/kg i.p. vs vehicle
  latency to tonic convulsions (significance in words): no significant differences
[2]; 3 mg/kg i.p., 30 min
  Clonic convulsion - latency, Change from vehicle: +10%
  Clonic convulsion - presence, Change from vehicle: +25%
  Tonic convulsion - latency, Change from vehicle: +23%
  Tonic convulsion - presence, Change from vehicle: +14%
  Wild running - latency, Change from vehicle: +16%
  Wild running - presence, Change from vehicle: +11%
  Clonic convulsion - presence, Total: 10
  Tonic convulsion - presence, Total: 8
  Wild running - presence, Total: 10
[2]; 10 mg/kg i.p. vs vehicle
  latency to tonic convulsions (significance in words): significantly increased
[2]; 10 mg/kg i.p., 30 min
  Clonic convulsion - latency, Change from vehicle: +44%
  Clonic convulsion - presence, Change from vehicle: −13%
  Tonic convulsion - latency, Change from vehicle: +400%*
  Tonic convulsion - presence, Change from vehicle: −57%
  Wild running - latency, Change from vehicle: +27%
  Wild running - presence, Change from vehicle: −11%
  Clonic convulsion - presence, Total: 7
  Tonic convulsion - presence, Total: 3
  Wild running - presence, Total: 8
[2]; 30 mg/kg i.p. vs vehicle
  latency to clonic convulsions (significance in words): significantly increased
  latency to tonic convulsions (significance in words): significantly increased
  latency to wild running (significance in words): significantly increased
[2]; 30 mg/kg i.p., 15 min
  Clonic convulsion - latency, Change from vehicle: +574%**
  Tonic convulsion - latency, Change from vehicle: +400%**
  Wild running - latency, Change from vehicle: +1076%***
  Clonic convulsion - presence, Total: 2
  Tonic convulsion - presence, Total: 0
  Wild running - presence, Total: 2
[2]; 3 and 10 mg/kg i.p. vs vehicle
  latency to clonic convulsions (significance in words): no significant differences
  latency to wild running (significance in words): no significant differences
[2]; 3 or 10 mg/kg i.p.
  number of mice displaying clonic convulsions (significance in words): no significant differences
  number of mice displaying tonic convulsions (significance in words): no significant differences
  number of mice displaying wild running (significance in words): no significant differences
[3]; [4]
  CC50 +/− SEM: 67.5 ± 2.6 mA and 65.8 ± 1.9 mA
  Change from vehicle (CC50): 150% and 145%
[3]; [5]
  CC50 +/− SEM: 35.3 ± 1.1 mA
  Change from vehicle (CC50): 32%
[3]; [6]
  CC50 +/− SEM: 56.0 ± 1.6 mA
  Change from vehicle (CC50): 109%
[3]; [7]
  CC50 +/− SEM: >131.0 mA
  Change from vehicle (CC50): 414%
